Measured values: ChEMBL document CHEMBL4819085, “Dipyridyl-substituted thiosemicarbazone as a potent broad-spectrum inhibitor of metallo-β-lactamases” (Bioorg Med Chem, 2021)
Values after ≈ are worked out from the molar mass of the structure shown. Active and inactive are the calls of the source. The calls are words filed in the database; no cut-off is given here.

Tests used:
Staphylococcus aureus = test: Antibacterial activity against methicillin-resistant Staphylococcus aureus assessed as reduction in bacterial growth incubated for 24 hrs by broth microdilution method; format: functional
Escherichia coli [1] = test: Inhibition of Escherichia coli IMP-1 assessed as reduction in bacterial growth incubated for 24 hrs by broth microdilution method
Escherichia coli [2] = test: Antibacterial activity against Escherichia coli 01 assessed as reduction in bacterial growth incubated for 24 hrs by broth microdilution method; format: functional
Escherichia coli [3] = test: Inhibition of Escherichia coli ImiS assessed as reduction in bacterial growth incubated for 24 hrs by broth microdilution method
Enterococcus faecium = test: Antibacterial activity against vancomycin-resistant Enterococcus faecium assessed as reduction in bacterial growth incubated for 24 hrs by broth microdilution method; format: functional
Bacteria = test: Inhibition of bacterial NDM-1 expressed in Escherichia coli BL21 (DE3) at 20 uM using meropenem as substrate incubated for 1 hr by spectrometry analysis relative to control
Escherichia coli [4] = test: Antibacterial activity against Escherichia coli 04 assessed as reduction in bacterial growth incubated for 24 hrs by broth microdilution method; format: functional
Escherichia coli [5] = test: Antibacterial activity against Escherichia coli 08 assessed as reduction in bacterial growth incubated for 24 hrs by broth microdilution method; format: functional
[6] = target: Metallo-beta-lactamase (Escherichia coli) (UniProt Q5U7L7); test: Inhibition of Escherichia coli VIM-2 assessed as reduction in bacterial growth incubated for 24 hrs by broth microdilution method
Klebsiella pneumoniae [7] = test: In vivo antibacterial activity against Klebsiella pneumoniae producing NDM-1 infected in mouse assessed as reduction in bacterial load in spleen at 10 mg/kg, ip; format: functional, organism-based
Escherichia coli [8] = test: Antibacterial activity against Escherichia coli 06 assessed as reduction in bacterial growth incubated for 24 hrs by broth microdilution method; format: functional
Klebsiella pneumoniae [9] = test: In vivo antibacterial activity against Klebsiella pneumoniae producing NDM-1 infected in mouse assessed as reduction in bacterial load in liver at 10 mg/kg, ip; format: functional, organism-based
Klebsiella pneumoniae [10] = test: Antibacterial activity against Klebsiella pneumoniae assessed as reduction in bacterial growth incubated for 24 hrs by broth microdilution method; format: functional
Escherichia coli [11] = test: Inhibition of Escherichia coli L1 assessed as reduction in bacterial growth incubated for 24 hrs by broth microdilution method
Escherichia coli [12] = test: Inhibition of Escherichia coli NDM-1 assessed as reduction in bacterial growth incubated for 24 hrs by broth microdilution method
Pseudomonas aeruginosa = test: Antibacterial activity against Carbapenem-resistant Pseudomonas aeruginosa assessed as reduction in bacterial growth incubated for 24 hrs by broth microdilution method; format: functional
Escherichia coli [13] = test: Antibacterial activity against Escherichia coli 24 assessed as reduction in bacterial growth incubated for 24 hrs by broth microdilution method; format: functional
[14] = Inhibition of bacterial IMP-1 using meropenem as substrate incubated for 1 hr by spectrometry analysis; parameters: species or system Bacteria
[15] = Inhibition of bacterial VIM-2 expressed in Escherichia coli BL21 (DE3) using meropenem as substrate incubated for 1 hr by spectrometry analysis; parameters: species or system Bacteria
[16] = Inhibition of bacterial ImiS expressed in Escherichia coli BL21 (DE3) using meropenem as substrate incubated for 1 hr by spectrometry analysis; parameters: species or system Bacteria
[17] = Inhibition of bacterial L1 using meropenem as substrate incubated for 1 hr by spectrometry analysis; parameters: species or system Bacteria
[18] = Inhibition of bacterial NDM-1 expressed in Escherichia coli BL21 (DE3) using meropenem as substrate incubated for 1 hr by spectrometry analysis; parameters: species or system Bacteria

C[C@@H](O)[C@H]1C(=O)N2C(C(=O)O)=C(S[C@@H]3CN[C@H](C(=O)N(C)C)C3)[C@H](C)[C@H]12 [MEROPENEM]
MIC (Staphylococcus aureus): 64 µg/mL (≈ 0.167 mM) | MIC (Escherichia coli [1]): 32 µg/mL (≈ 0.0834 mM) | MIC (Escherichia coli [2]): 128 µg/mL (≈ 0.334 mM) | MIC (Escherichia coli [3]): 64 µg/mL (≈ 0.167 mM) | MIC (Enterococcus faecium): 256 µg/mL (≈ 0.668 mM) | inhibition (Bacteria): > 90% | MIC (Escherichia coli [4]): 64 µg/mL (≈ 0.167 mM) | MIC (Escherichia coli [5]): 128 µg/mL (≈ 0.334 mM) | MIC [6]: 64 µg/mL (≈ 0.167 mM) | inhibition (Klebsiella pneumoniae [7]): Active | MIC (Escherichia coli [8]): 128 µg/mL (≈ 0.334 mM) | inhibition (Klebsiella pneumoniae [9]): Active | MIC (Klebsiella pneumoniae [10]): 256 µg/mL (≈ 0.668 mM) | MIC (Escherichia coli [11]): 128 µg/mL (≈ 0.334 mM) | MIC (Escherichia coli [12]): 128 µg/mL (≈ 0.334 mM) | MIC (Pseudomonas aeruginosa): 8 µg/mL (≈ 0.0209 mM) | MIC (Escherichia coli [13]): 128 µg/mL (≈ 0.334 mM)

CO/N=C(\C(=O)N[C@@H]1C(=O)N2C(C(=O)O)=C(COC(C)=O)CS[C@H]12)c1csc(N)n1 [CEFOTAXIME]
MIC (Staphylococcus aureus): 1020 µg/mL (≈ 2.25 mM) | MIC (Escherichia coli [2]): 16000 µg/mL (≈ 35.1 mM) | MIC (Enterococcus faecium): 4100 µg/mL (≈ 8.99 mM) | MIC (Escherichia coli [4]): > 16000 µg/mL | MIC (Escherichia coli [5]): 8190 µg/mL (≈ 18 mM) | MIC (Escherichia coli [8]): 8190 µg/mL (≈ 18 mM) | MIC (Klebsiella pneumoniae [10]): 16000 µg/mL (≈ 35.1 mM) | MIC (Pseudomonas aeruginosa): > 16000 µg/mL | MIC (Escherichia coli [13]): 16000 µg/mL (≈ 35.1 mM)

CC1(C)S[C@@H]2[C@H](NC(=O)[C@H](N)c3ccccc3)C(=O)N2[C@H]1C(=O)O [AMPICILLIN]
MIC (Staphylococcus aureus): > 16000 µg/mL | MIC (Escherichia coli [2]): > 16000 µg/mL | MIC (Enterococcus faecium): > 16000 µg/mL | MIC (Escherichia coli [4]): > 16000 µg/mL | MIC (Escherichia coli [5]): > 16000 µg/mL | MIC (Escherichia coli [8]): 8190 µg/mL (≈ 23.4 mM) | MIC (Klebsiella pneumoniae [10]): 8190 µg/mL (≈ 23.4 mM) | MIC (Pseudomonas aeruginosa): > 16000 µg/mL | MIC (Escherichia coli [13]): 16000 µg/mL (≈ 45.8 mM)

Cc1nnc(SCC2=C(C(=O)O)N3C(=O)[C@@H](NC(=O)Cn4cnnn4)[C@H]3SC2)s1 [CEFAZOLIN]
MIC (Staphylococcus aureus): 4100 µg/mL (≈ 9.01 mM) | MIC (Escherichia coli [2]): 16000 µg/mL (≈ 35.2 mM) | MIC (Enterococcus faecium): 8130 µg/mL (≈ 17.9 mM) | MIC (Escherichia coli [4]): 4100 µg/mL (≈ 9.01 mM) | MIC (Escherichia coli [5]): 4100 µg/mL (≈ 9.01 mM) | MIC (Escherichia coli [8]): 4100 µg/mL (≈ 9.01 mM) | MIC (Klebsiella pneumoniae [10]): 4100 µg/mL (≈ 9.01 mM) | MIC (Pseudomonas aeruginosa): > 16000 µg/mL | MIC (Escherichia coli [13]): 4100 µg/mL (≈ 9.01 mM)

CO/N=C(\C(=O)N[C@@H]1C(=O)N2C(C(=O)O)=C(CSc3nc(=O)c(O)nn3C)CS[C@H]12)c1csc(N)n1 [CEFTRIAXONE]
MIC (Staphylococcus aureus): 4100 µg/mL (≈ 7.39 mM) | MIC (Escherichia coli [2]): 16000 µg/mL (≈ 28.9 mM) | MIC (Enterococcus faecium): 512 µg/mL (≈ 0.923 mM) | MIC (Escherichia coli [4]): 16000 µg/mL (≈ 28.9 mM) | MIC (Escherichia coli [5]): 16000 µg/mL (≈ 28.9 mM) | MIC (Escherichia coli [8]): 16000 µg/mL (≈ 28.9 mM) | MIC (Klebsiella pneumoniae [10]): 8190 µg/mL (≈ 14.8 mM) | MIC (Pseudomonas aeruginosa): 64 µg/mL (≈ 0.115 mM) | MIC (Escherichia coli [13]): 16000 µg/mL (≈ 28.9 mM)

O=C(O)C(=O)CBr [BROMOPYRUVATE]
IC50 [14]: 28.9 µM | IC50 [15]: 18.7 µM | IC50 [16]: > 40 µM | IC50 [17]: > 40 µM | IC50 [18]: 2.57 µM
